Where two headings read alike, the source gives them in different places.
Experiments:
hERG channel = details: cited from earlier work
[1] = Charge character of the drugs at pH 7.4; format: physicochemical
[2] = target: human serum albumin (HSA) (Homo sapiens, UniProt P02768); assay: Protein binding on Chiralpak HSA HPLC column
Description: (§1) The measurement of the biomimetic properties of the available drugs was conducted in our laboratories. Generic gradient HPLC methods were used to determine the chromatographic hydrophobicity Index (CHI) using mobile phases at three different pH values. The protein binding of the compounds was measured using immobilised human serum albumin (HSA), and alpha-1-acid-glycoprotein (AGP) stationary phases. The phospholipid-binding was measured using the immobilised artificial membrane (IAM) stationary phase. The aim was to establish relationships between the cardiotoxicity potential and the biomimetic binding properties of the drugs and to evaluate their predictive performance.

[3] = CHI lipophilicity by gradient reversed-phase HPLC (Gemini NX-C-18); details: for chromatographic logD: Gemini NX-C-18 reversed-phase HPLC column, pH 7.4; for chromatographic logP: reversed-phase HPLC, Gemini NX-C-18 column (50 x 3 mm, 5 µm)
Description: The Chromatographic Hydrophobicity Index (CHI) was measured using the compounds’ calibrated gradient retention times obtained from an Agilent 1100 HPLC fitted with a Gemini NX-C-18 column (Phenomenex Ltd Macclesfield, UK) with dimensions of 50 x 3 mm and 5 μm particle size. […] The mobile phase B was 100 % acetonitrile. […] An acetonitrile linear gradient was used from 0 to 100 %. […] The retention time values for a standard set of compounds listed in Table 1 were used to convert the drug retention times to CHI values.

[4] = Phospholipid binding at pH 7.4 on IAM PC.DD2 HPLC column; format: physicochemical; set-up: key to CHI IAM: approximates acetonitrile concentration (%) in mobile phase at elution; details: for CHI IAM: pH 7.4; for log k IAM: pH 7.4, derived from CHI IAM by equation 1
Description: The phospholipid-binding was measured using an IAM PC.DD2 column with dimensions of 100 x 4.6 mm (Regis Technologies Inc., Morton Grove, IL, USA). The gradient retention times were measured using a 50 mM ammonium acetate mobile phase with the pH adjusted to 7.4. The mobile phase flow rate was 1.5 mL/min. […] The cycle time was 6 min, plus an additional 1 min equilibration time was applied while the injector prepared for the next injection. The gradient retention times were calibrated with the acetophenone homologues for which the CHI IAM values have been established using isocratic measurements. […] The CHI Index on the IAM column (CHI IAM) approximates the acetonitrile concentration in the mobile phase when the compound elutes. […] The CHI IAM values have been converted to log k IAM values derived from the CHI IAM values using equation 1. It represents the equivalent value derived from several isocratic measurements with extrapolated log retention factors to 100 % aqueous mobile phase. The log k IAM values can be converted to log K (IAM) values and show linear relationships with the octanol/water partition coefficients.

[5] = system: alpha-1-acid-glycoprotein (AGP); assay: Protein binding on Chiralpak AGP HPLC column
Description: as §1

[6] = literature values, mean where several reported, molar

human serum albumin (HSA), sequence (P02768 25-609): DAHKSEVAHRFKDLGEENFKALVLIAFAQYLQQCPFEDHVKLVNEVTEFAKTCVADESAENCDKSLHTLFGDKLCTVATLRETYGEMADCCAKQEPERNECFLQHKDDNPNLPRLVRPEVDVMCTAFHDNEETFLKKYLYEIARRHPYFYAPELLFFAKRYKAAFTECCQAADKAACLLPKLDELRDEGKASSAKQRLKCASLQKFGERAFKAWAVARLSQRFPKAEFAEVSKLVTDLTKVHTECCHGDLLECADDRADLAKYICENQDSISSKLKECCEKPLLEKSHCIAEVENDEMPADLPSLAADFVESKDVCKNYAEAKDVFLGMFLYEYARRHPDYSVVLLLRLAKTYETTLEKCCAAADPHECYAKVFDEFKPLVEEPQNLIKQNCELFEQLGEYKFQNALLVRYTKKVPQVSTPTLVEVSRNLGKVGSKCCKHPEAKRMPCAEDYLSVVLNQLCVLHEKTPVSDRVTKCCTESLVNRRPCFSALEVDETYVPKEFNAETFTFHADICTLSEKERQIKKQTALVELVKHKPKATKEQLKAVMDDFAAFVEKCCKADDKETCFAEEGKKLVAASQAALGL

SMILES | hERG pIC50 (hERG channel) | Charge [1] | log k HSA ([2]; pH 7.4, Chiralpak HSA) | chromatographic logD [3] | chromatographic logP [3] | CHI IAM [4] | log k IAM [4] | log k AGP ([5]; pH 7.4, Chiralpak AGP) | hERG pIC50 (hERG channel; [6]) | log k HSA ([2]; human, pH 7.4) | log k AGP ([5]; pH 7.4)
Nc1nnc(-c2cccc(Cl)c2Cl)c(N)n1 [Lamotrigine] | 3.55 | Weak Base | 0.16 | 0.86 | 0.81 | 23.25 | 1.49 | -0.33 | – | – | –
CCCCN1CCCC[C@H]1C(=O)Nc1c(C)cccc1C [Levobupivacaine] | – | Weak Base | 0.13 | 3.25 | 4.2 | 41.83 | 2.34 | 1.25 | 5.48 | – | –
CCOc1ccccc1OCCN[C@H](C)Cc1ccc(OC)c(S(N)(=O)=O)c1 [Tamsulosin] | – | Basic | 0.36 | 1.43 | 2.01 | – | 2.00 | 0.60 | 4.89 | – | –
COc1cc(N)c(Cl)cc1C(=O)NC1CCN(CCCOc2ccc(F)cc2)CC1OC (centres unmarked) [Cisapride] | 6.88 | Basic | 1.11 | 2.65 | 3.17 | – | 2.35 | 0.84 | – | – | –
COc1cc2nc(N(C)CCCNC(=O)C3CCCO3)nc(N)c2cc1OC (centres unmarked) [Alfuzosin] | 4.28 | – | 0.08 | – | – | – | – | 0.32 | – | – | –
CN1CCN(C2=Nc3cc(Cl)ccc3Nc3ccccc32)CC1 [Clozapine] | – | Weak Base | 1.04 | 2.6 | 3.05 | 52.42 | 2.83 | 0.99 | – | – | –
COc1c(N2C[C@@H]3CCCN[C@@H]3C2)c(F)cc2c(=O)c(C(=O)O)cn(C3CC3)c12 [Moxifloxacin] | – | Zwitterionic | – | – | – | – | – | – | 3.83 | 0.54 | –
COc1ccc(CN(CCN(C)C)c2ccccn2)cc1 [Pyrilamine] | 5.18 | Basic | 0.44 | 1.72 | 3.32 | 46.62 | 2.56 | 0.49 | – | – | –
CNCCCC12CCC(c3ccccc31)c1ccccc12 [Maprotiline] | – | Basic | – | 2.03 | 4.79 | – | 3.03 | 0.99 | 5.17 | – | –
O=C1Cc2cc(CCN3CCN(c4nsc5ccccc45)CC3)c(Cl)cc2N1 [Ziprasidone] | 6.44 | Weak Base | 1.42 | 2.98 | 2.96 | 47.92 | 2.62 | 1.09 | – | – | –
CN(C)CCCN1c2ccccc2Sc2ccc(Cl)cc21 [Chlorpromazine] | – | Basic | – | -0.58 | 0.97 | 48.16 | 2.64 | 1.79 | 5.65 | – | –
CCCCN1CCCCC1C(=O)Nc1c(C)cccc1C (centres unmarked) [Bupivacaine] | – | Weak Base | -0.10 | 3.06 | 3.97 | 41.66 | 2.34 | 1.35 | 5.51 | – | –
COCC(=O)O[C@]1(CCN(C)CCCc2nc3ccccc3[nH]2)CCc2cc(F)ccc2[C@@H]1C(C)C [Mibefradil] | 5.88 | Basic | – | 2.96 | 3.99 | – | 2.96 | 1.11 | – | – | –
O=C(NCC1CCCCN1)c1cc(OCC(F)(F)F)ccc1OCC(F)(F)F (centres unmarked) [Flecainide] | – | Basic | -0.05 | 1.68 | 3.01 | – | 2.33 | 0.16 | 5.25 | – | –
CC(C)COCC(CN(Cc1ccccc1)c1ccccc1)N1CCCC1 (centres unmarked) [Bepridil] | – | Basic | 1.27 | 4.4 | 6.62 | – | 3.08 | 1.14 | 6.42 | – | –
CC(=O)S[C@@H]1CC2=CC(=O)CC[C@]2(C)[C@H]2CC[C@@]3(C)[C@@H](CC[C@@]34CCC(=O)O4)[C@H]12 [Spironolactone] | – | Neutral | 0.78 | 2.76 | 2.97 | 36.93 | 2.12 | 0.50 | – | – | –
CN1CCN(CCCN2c3ccccc3Sc3ccc(C(F)(F)F)cc32)CC1 [Trifluoperazine] | – | Basic | – | 3.8 | 5.14 | – | 3.55 | 1.19 | 5.72 | – | –
CC1COc2c(N3CCN(C)CC3)c(F)cc3c(=O)c(C(=O)O)cn1c23 (centres unmarked) [Ofloxacin] | 2.93 | Zwitterionic | – | 0.53 | – | – | 1.62 | -0.81 | – | – | –
CN1C2CCCC1CC(NC(=O)c1nn(C)c3ccccc13)C2 (centres unmarked) [Granisetron] | – | Basic | 0.34 | 0.79 | 2.5 | – | 2.53 | 0.52 | – | – | –
CN(CCOc1ccc(NS(C)(=O)=O)cc1)CCc1ccc(NS(C)(=O)=O)cc1 [Dofetilide] | 5.72 | Weak Base | -0.05 | 1.18 | 1.12 | – | – | 0.59 | – | – | –
Clc1ccc(COC(Cn2ccnc2)c2ccc(Cl)cc2Cl)c(Cl)c1 (centres unmarked) [Miconazole] | 5.68 | Weak Base | – | 4.64 | 4.7 | 53.72 | 2.89 | 1.26 | – | – | –
OCCN1CCN(CCCN2c3ccccc3Sc3ccc(Cl)cc32)CC1 [Perphenazine] | – | Weak Base | – | 2.92 | 3.5 | – | 2.61 | 1.13 | 5.88 | – | –
O=c1[nH]c2ccccc2n1CCCN1CCC(n2c(=O)[nH]c3cc(Cl)ccc32)CC1 [Domperidone] | – | Weak Base | 1.02 | 1.37 | 2.13 | 43.47 | 2.42 | – | – | – | –
OC(c1cc(C(F)(F)F)nc2c(C(F)(F)F)cccc12)C1CCCCN1 (centres unmarked) [Mefloquine] | 5.45 | Basic | 1.38 | 2.18 | 4.22 | – | – | 1.11 | – | – | –
CC(C)NCC(O)c1ccc(NS(C)(=O)=O)cc1 (centres unmarked) [Sotalol] | – | Basic | – | -0.39 | -0.35 | – | 1.43 | -1.41 | 3.57 | – | –
CCN(CC)CCNC(=O)c1cc(Cl)c(N)cc1OC [Metoclopramide] | – | Basic | – | – | – | – | – | – | 5.27 | 0.15 | 0.23
CNCCCC1c2ccccc2C=Cc2ccccc21 [Protriptyline] | – | Weak Base | – | 1.72 | 4.7 | – | 2.79 | 1.03 | 5.30 | – | –
C[C@H]1COc2c(N3CCN(C)CC3)c(F)cc3c(=O)c(C(=O)O)cn1c23 [Levofloxacin] | 2.93 | Zwitterionic | – | 0.54 | – | 28.55 | 1.73 | -0.74 | – | – | –
O=C(CCCN1CC=C(n2c(=O)[nH]c3ccccc32)CC1)c1ccc(F)cc1 [Droperidol] | – | Weak Base | 0.98 | 2.26 | 2.68 | – | – | 1.69 | – | – | –
